This note sets out measurements from US20210393547A1, “USE OF EMODIN IN TREATING RETINAL ISCHEMIA OR A DISEASE, CONDITION, OR DISORDER ASSOCIATED WITH RETINAL ISCHEMIA” (priority 2020, published 2021).

Each structure is given as a SMILES string.

For the data set, the system named is retinal ischemia in Wistar rats. Kind of data set: ERG b-wave recording after raised-IOP retinal ischemia/reperfusion. In kind it is in vivo, rat. Particulars: for ERG b-wave ratio (treated eye to untreated fellow eye): mean±S.E.M.; for ERG b-wave amplitude: Wistar rat. The method, then:
Emodin was purchased from Sigma-Aldrich (E7881; 90%; storage at 2-8° C.; from Frangula bark; St. Louis, Mo., United States). Drug administration for different procedures, namely ERG, fluorogold RGC labelling, cresyl violet retinal staining and Western blot assays, were described in Tables 3 to 6. Vehicle or emodin (5 μL) was administered via an intravitreous injection route so that these agents were then able to be directly diffused to the target. Emodin was dissolved in vehicle (DMSO:distilled water=1:3). The defined final cellular concentrations of administered drug were 0.25 or 0.5 μM, which were achieved after 40 times dilution from the stock concentrations, namely 10 or 20 μM, based on an arbitrary definition of the vitreous volume as 200 μL. To test a wider range of dose-response, 4 μM of emodin was thus added in the animal experiments. The Vehicle+IR and Emo+IR groups (pre-ischemic administration of emodin 4, 10 or 20 μM) were subjected to following the experimental procedures; these were initial pre-ischemic intravitreous injection (vehicle or emodin), retinal ischemia induction 1 day later, and sacrifice of the animal on the following day to allow the various post-mortem procedures except ERG. In the post-ischemic treatment group, in order to decrease the number of animals used, the present invention only used a single emodin concentration of 20 μM. Furthermore, intravitreous emodin was given 1 day after initial retinal ischemia induction and animals were sacrificed the following day to allow the performance of various post-mortem procedures as mentioned above.
The IOP procedure used raised the IOP and was designed to cause retinal ischemia in Wistar rats and simulate ischemic retinal disorders. The rats were anesthetized and constrained with a sterotaxic frame. A 30-gauge needle connected to an elevated saline bottle was attached to anterior chamber of the rat's eye. The pressure exerted by the saline inside the bottle was controlled to 120 mmHg. This procedure was conducted for 1 hour. Successful retinal ischemia induction was confirmed by observing that the whitening of the retina took place. Throughout the experiments, the animals were kept on heat mats to maintain their temperature. The sham procedure involved keeping the pressure in saline bottle 0 mmHg.
Animals were given anesthesia prior to the flash ERG measurements. For the Sham or pre-ischemic treatment group (intravitreous injection of emodin or vehicle 1 day before ischemia; Emodin+IR or Vehicle+IR), flash ERG responses were measured before the sham procedure, IR procedures or any drug administration (day 0), and one day after the sham procedure or IR procedure with pre-ischemic intravitreous injection. In the post-ischemic treatment group, ERG recordings were collected pre-ischemia (day 0), and post-ischemia (at timepoints: 1 day after ischemia; 1 day after post-ischemic intravitreous injection of emodin). Dark adaption and pupil dilation using 1% tropicamide and 2.5% phenylephrine were carried out 8 hours before the ERG measurement. The ERG recording machinery was purchased from the Grass-Telefactor Company (AstroNova, QC, Canada) and included a stimulator (PS22), a regulated power supply (RPS107), and an amplifier (P511). A strobe light (0.5 Hz), which acted as the source of stimulus, was placed 2 cm directly in front of the rat's eye. Fifteen consecutive measurements (10 kHz) were retrieved every two seconds. The amplitudes were calculated to obtain an average. To make comparisons between the various groups, the ratios of the b-wave amplitude of one eye (sham procedure or ischemic insult with defined agents) to that of the untreated fellow normal eye were analyzed.

As to `Cc1cc(O)c2c(c1)C(=O)c1cc(O)cc(O)c1C2=O` [emodin, 6-methyl-1,3,8-trihydroxyanthraquinone], the “ERG b-wave ratio (treated eye to untreated fellow eye)” value is, setting by setting: (Emo4+IR: pre-ischemic intravitreous 4 μM emodin, n=8, Sham normalized to 1, Vehicle+IR 0.04) 0.08±0.07; (Emo10+IR: pre-ischemic intravitreous 10 μM emodin, n=4, P<0.001 vs Vehicle+IR) 0.64±0.28; (Emo20+IR: pre-ischemic intravitreous 20 μM emodin, n=4, P<0.001 vs Vehicle+IR) 0.99±0.18; (IR+Emo20: post-ischemic intravitreous 20 μM emodin, n=9, P<0.001 vs Vehicle+IR) 0.24±0.09. For the same compound, the ERG b-wave amplitude is on record as 0.07 mV (Emo4+IR: pre-ischemic intravitreous injection of 4 μM emodin followed by IR, Sham 0.87, Vehicle+IR 0.03); 0.58 mV (Emo10+IR: pre-ischemic intravitreous injection of 10 μM emodin followed by IR); 0.63 mV (Emo20+IR: pre-ischemic intravitreous injection of 20 μM emodin followed by IR); 0.12 mV (IR+Emo20: IR followed by post-ischemic intravitreous injection of 20 μM emodin).
